# Test results from patent US9393316B2, “Cancer targeting peptides for enhancing anti-cancer drug delivery and therapeutic efficiencies” (priority 2014, dated 2016).
# Columns and labels:
# HCT116 xenografts = test: Immunohistochemical localization of phages in xenograft tumor and organs; format: in vivo, mice; conditions: tumor vs brain, heart, lungs, colon
# Description: The tissue samples from in vivo phage homing experiment were embedded in frozen blocks. To evaluate the phage distribution in each tissue by immunohistochemistry, the frozen specimens were cut to 8-μm-thick sections and were collected on coated slides. The slides were washed with cold PBS to remove OCT and were fixed with 4% paraformaldehyde for 10 min at RT. To block endogenous peroxidase activity, the slides were soaked with 3% hydrogen peroxide in methanol for 30 min at RT. The nonspecific antibody binding sites were blocked by immersing the section with 1% BSA in PBS for 30 min at RT. The tissue sections were incubated with mouse anti-M13 monoclonal antibody at 1:250 dilution for 1 hr, followed by adding Super Enhancer reagent (Super SENSITIVE™ Polymer HRP Detection System/DAB, BioGenex) for 20 min and Poly-HRP reagent (BioGenex) for 30 min. After washing, the sections were developed with DAB (3,3′-diaminobenzidine) Chromogen (BioGenex) supplemented with Stable DAB buffer. The reaction was stopped by adding PBS. For nuclei staining, the slides were immersed in hematoxylin for 5 min, and were then mounted with mounting solution to terminate the reaction. The images of sections were taken and analyzed using automated acquisition system (TissueGnostics).
# [1] = test system: peripheral blood mononuclear cells (PBMC); test: Flow cytometry binding of phage clones to normal cells; conditions: human PBMC
# Description: (§1) Cells were grown to 70-80% confluence and were harvested with 10 mM EDTA in PBS. Peripheral blood mononuclear cells were prepared by using Ficoll-Paque Plus density gradient separation. After washing and suspending the cells with FACS buffer (PBS containing 1% fetal bovine serum), the cells were incubated for 1 hr at 4° C. with 5×10^9, 1×10^9 cfu individual phage clones or control phage, respectively. After washing twice with FACS buffer, cells were incubated with mouse anti-M13 monoclonal antibody (GE Healthcare) at 1:2000 dilution for 1 hr followed by 30 min with phycoerythrin (PE)-conjugated goat anti-mouse secondary antibody (Jackson ImmunoResearch) at 1:250 dilution at 4° C. The emission fluorescence signals were measured using FACSCantoll (Becton Dickinson) and were analyzed by FlowJo software.
# HCT116 cells [2] = test: ELISA screening of phage clones on HCT116 cells (cellular ELISA); format: binding, human; conditions: HCT116, cell line panel
# Description: The selected phages were further identified by ELISA screening. 1×10^4 cells were seeded into each well of 96-well ELISA plates (Falcon, Calif., USA) overnight and were fixed with 2% paraformaldehyde or methanol/acetone (1:1) for 10 min at RT. The plates were washed twice with PBS and were blocked with 1% BSA in PBS (w/v) for 30 min at RT. Then individual phage clones were added and incubated for 1 hr at RT. Following washing three times with PBS, the plates were incubated with horseradish peroxidase (HRP)-conjugated mouse anti-M13 phage antibody (GE Healthcare) at 1:2000 dilution for 1 hr at RT. The plates were washed three times with PBS again, and were subsequently incubated with the peroxidase substrate o-phenylenediamine dihydrochloride (OPD; Sigma) plus H2O2. The reaction was terminated by 3 N HCl, and the absorbance was measured using microplate reader (Model 680, BioRad) at 490 nm.
# [3] = target: recombinant α-enolase protein (Homo sapiens, UniProt P06733); test: Direct ELISA of HCT74 phage on recombinant α-enolase protein; format: binding; conditions: plate coated with 2 ug/mL α-enolase
# Description: (A) Schematic diagram of the experimental design. (B) The binding characteristics of biotinylated pHCT74 peptide to HCT116 cells were evaluated by flow cytometry. (C) Affinity cross-linking of biotinylated pHCT74 peptide to the surface proteins of HCT116 cells, cross-linked proteins were cleaved from streptavidin dynabeads using 2-mercaptoethanol. […] (D) The peptide sequence (SEQ ID NO: 22) of target bands were deduced by tandem mass spectrometry. (E) Stable knockdown of ENO1 gene by introducing specific shRNA (ENO1-A, B, C and D shRNA) into HCT116 cells through infection with viral vectors. (F) The binding activity of HCT74 phage was reduced after α-enolase gene knockdown (G) The binding activity of HCT74 phage was enhanced when α-enolase was overexpressed. (H) Binding affinity of the HCT74 phage to recombinant α-enolase protein. The 96-well plate was pre-coated with 2 ug/mL α-enolase protein and incubated with increasing concentrations of HCT74 phage and then with HRP conjugated anti-M13 antibody. Data are presented as mean±standard deviation.
# To further confirm alpha-enolase was the target proteins of the pHCT74 peptide, correlation between the binding activity of HCT74 phage and ENO1 expression was examined. We established stable cell lines expressing shRNAs targeting ENO1 gene (FIG. 4E) and tested the binding activity of HCT74 phage by flow cytometry. […]
# alpha-enolase (ENO1) = target: T1, alpha-enolase (ENO1) (Homo sapiens, UniProt P06733); test: Flow cytometry binding of HCT74 phage after ENO1 knockdown or overexpression
# T1 construct: endogenous in cells; host or cells: HCT116
# Description: To further confirm alpha-enolase was the target proteins of the pHCT74 peptide, correlation between the binding activity of HCT74 phage and ENO1 expression was examined. We established stable cell lines expressing shRNAs targeting ENO1 gene (FIG. 4E) and tested the binding activity of HCT74 phage by flow cytometry. The binding activity of HCT74 phage was reduced after ENO1 gene knockdown (FIG. 4F). Instead, after transient overexpression of ENO1 gene, the binding activity of HCT74 phage was increased (FIG. 4G). […] In addition, HCT74 phage specific binding to the alpha enolase protein was also confirmed by direct ELISA assay (FIG. 4H).
# COLO205 = test: Flow cytometry surface binding of phage clones; design: species or system human
# Description: as §1
# SW620 = test: Flow cytometry surface binding of phage clones; design: species or system human
# Description: as §1
# HT29 = test: Flow cytometry surface binding of phage clones; design: species or system human
# Description: as §1
# LS174T = test: Flow cytometry surface binding of phage clones; design: species or system human
# Description: as §1
# HCT116 cells [4] = test: Flow cytometry surface binding of phage clones; design: species or system human
# Description: as §1
# T1 sequence (P06733 whole entry): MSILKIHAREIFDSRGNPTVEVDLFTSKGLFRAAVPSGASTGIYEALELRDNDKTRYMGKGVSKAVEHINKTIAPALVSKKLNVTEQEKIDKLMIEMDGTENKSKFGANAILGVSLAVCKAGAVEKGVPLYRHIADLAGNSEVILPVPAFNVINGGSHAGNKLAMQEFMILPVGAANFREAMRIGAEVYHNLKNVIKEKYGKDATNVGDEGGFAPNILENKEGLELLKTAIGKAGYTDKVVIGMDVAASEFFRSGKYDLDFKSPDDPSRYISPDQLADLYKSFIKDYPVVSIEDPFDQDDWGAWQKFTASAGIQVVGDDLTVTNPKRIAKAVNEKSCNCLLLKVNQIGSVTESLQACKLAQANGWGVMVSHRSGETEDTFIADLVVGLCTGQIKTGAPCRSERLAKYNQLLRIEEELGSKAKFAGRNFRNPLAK
# Chain of recombinant α-enolase protein (P06733 whole entry): as above
sequence,measurement,setting,value
SSMDIVLRAPLM [HCT74],phage localization by immunostaining of tissue sections,HCT116 xenografts,selectively localized in tumor tissues
same,phage localization by immunostaining of tissue sections,HCT116 xenografts; listed as HCT-74,strong accumulated in the tumor
same,binding activity to PBMC (normal cells) by FACS,[1],not to normal cells
same,binding by cellular ELISA,HCT116 cells [2],highly specific binding
same,specific binding to alpha enolase protein,[3],confirmed
same,binding activity after ENO1 gene knockdown,alpha-enolase (ENO1); HCT116 cells with shRNAs targeting ENO1,reduced
same,binding activity after transient overexpression of ENO1 gene,alpha-enolase (ENO1); flow cytometry,increased
same,binding activity by FACS,COLO205,weak affinity
same,binding activity by FACS,SW620,high binding affinity
same,binding activity by FACS,HT29,high binding affinity
same,binding activity by FACS,LS174T,moderate affinity
same,cell surface-binding activity by flow cytometry,HCT116 cells [4],high binding affinity
